Source: patent publication EP3057951B1, “METHYLENE LINKED QUINOLINYL MODULATORS OF ROR-GAMMA-T” (Janssen Pharmaceutica NV, priority 2013, dated 2015)
Counter-ions that a name gives are not always drawn. Like-named read-outs stand apart in the source and are kept apart here.

Target: T1, wild type human RORγt LBD (Homo sapiens, UniProt P51449)
T1 construct: expressed in transfected cells; host or cells: HEK293T
T1 sequence (P51449 258-518): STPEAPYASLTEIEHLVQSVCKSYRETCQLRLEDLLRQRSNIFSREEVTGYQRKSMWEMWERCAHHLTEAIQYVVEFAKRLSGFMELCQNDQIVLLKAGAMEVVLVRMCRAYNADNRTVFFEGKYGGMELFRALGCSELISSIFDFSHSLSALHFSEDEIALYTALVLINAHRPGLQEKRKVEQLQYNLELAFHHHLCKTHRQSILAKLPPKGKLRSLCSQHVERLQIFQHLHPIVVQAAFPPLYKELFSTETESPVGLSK
Assay: RORγt (LBD) Reporter Assay (GAL4-luciferase, HEK293T cells)
Assay type: cell-based
Settings: for inhibition at 6 µM: HEK-293T, read-out: RORγt (LBD) Reporter Assay, % inhibition @ 6 µM, 6 µM compound concentration; for RORγt (LBD) Reporter Assay, % inhibition @ 6 µM: 6 µM compound concentration

Compound	RORγt (LBD) Reporter Assay, % inhibition @ 6 µM (HEK293T cells) [%]	inhibition at 6 µM [%]	other results
COc1c(Cc2ccccc2)c(C(F)(F)F)nc2ccc(C(O)(c3ccc(Cl)cc3)c3cncn3C)cc12 (racemic) [Example 101a, (3-Benzyl-4-methoxy-2-(trifluoromethyl)quinolin-6-yl)(4-chlorophenyl)(1-methyl-1H-imidazol-5-yl)methanol•TFA]	–	96	–
COc1nc2ccc(C(O)(c3ccc(C)nc3C)c3cnnn3C)cc2c(Cl)c1Cc1ccc(C(F)(F)F)nc1 (single isomer, unassigned) [Example 40b, (4-Chloro-2-methoxy-3-((6-(trifluoromethyl)pyridin-3-yl)methyl)quinolin-6-yl)(2,6-dimethylpyridin-3-yl)(1-methyl-1H-1,2,3-triazol-5-yl)methanol]	–	88	–
COc1nc2ccc(C(O)(c3ccc(C)nc3C)c3cnnn3C)cc2c(Cl)c1Cc1ccc(C(F)(F)F)nc1 (single isomer, unassigned) [Example 40c, (4-Chloro-2-methoxy-3-((6-(trifluoromethyl)pyridin-3-yl)methyl)quinolin-6-yl)(2,6-dimethylpyridin-3-yl)(1-methyl-1H-1,2,3-triazol-5-yl)methanol]	–	–	RORγt (LBD) Reporter Assay, % inhibition @ 6 µM: 94%
COc1nc2ccc(C(O)(c3ccccn3)c3cncn3C)cc2c(Cl)c1Cc1ccc(-n2cccn2)cc1 (single isomer, unassigned) [Example 64b, (3-(4-(1H-Pyrazol-1-yl)benzyl)-4-chloro-2-methoxyquinolin-6-yl)(1-methyl-1H-imidazol-5-yl)(pyridin-2-yl)methanol]	–	103	–
COc1nc2ccc(C(O)(c3ccccn3)c3cncn3C)cc2c(Cl)c1Cc1ccc(-n2cccn2)cc1 (single isomer, unassigned) [Example 64c, (3-(4-(1H-Pyrazol-1-yl)benzyl)-4-chloro-2-methoxyquinolin-6-yl)(1-methyl-1H-imidazol-5-yl)(pyridin-2-yl)methanol]	–	–	RORγt (LBD) Reporter Assay, % inhibition @ 6 µM: 107%
COc1nc2ccc(C(O)(c3cnnn3C)c3cnc(C)n3C)cc2c(Cl)c1Cc1ccc(F)cc1 (single isomer, unassigned) [Example 65b]	–	74	–
COc1nc2ccc(C(O)(c3cnnn3C)c3cnc(C)n3C)cc2c(Cl)c1Cc1ccc(F)cc1 (single isomer, unassigned) [Example 65c]	–	–	RORγt (LBD) Reporter Assay, % inhibition @ 6 µM: 81%
COc1c(Cc2ccccc2)c(C(F)(F)F)nc2ccc(C(O)(c3ccc(Cl)cc3)c3cncn3C)cc12 (single isomer, unassigned) [Example 101b]	–	62	–
COc1c(Cc2ccccc2)c(C(F)(F)F)nc2ccc(C(O)(c3ccc(Cl)cc3)c3cncn3C)cc12 (single isomer, unassigned) [Example 101c]	–	89	–
Cn1cncc1C(O)(c1ccc(C(F)(F)F)nc1)c1ccc2nc(-c3nccn3C)c(Cc3ccccc3)c(Cl)c2c1 (single isomer, unassigned) [Example 113c, (3-Benzyl-4-chloro-2-(1-methyl-1H-imidazol-2-yl)quinolin-6-yl)(1-methyl-1H-imidazol-5-yl)(6-(trifluoromethyl)pyridin-3-yl)methanol•TFA]	–	–	inhibition at 6 µM (HEK293T cells): 90%
Cn1cncc1C(O)(c1ccc(C(F)(F)F)nc1)c1ccc2nc(-n3cccn3)c(Cc3ccccc3)c(C#N)c2c1 (single isomer, unassigned) [Example 114b, 3-Benzyl-6-(hydroxy(1-methyl-1H-imidazol-5-yl)(6-(trifluoromethyl)pyridin-3-yl)methyl)-2-(1H-pyrazol-1-yl)quinoline-4-carbonitrile•TFA]	–	–	inhibition at 6 µM (HEK293T cells): 86%
CC(=O)N1CCC(C(O)(c2ccc3nc(C(F)(F)F)c(Cc4ccccc4)c(Cl)c3c2)c2cncn2C)CC1 (single isomer, unassigned) [Example 115b, 1-(4-((3-Benzyl-4-chloro-2-(trifluoromethyl)quinolin-6-yl)(hydroxy)(1-methyl-1H-imidazol-5-yl)methyl)piperidin-1-yl)ethanone•TFA]	–	–	inhibition at 6 µM (HEK293T cells): 67%
CNC(c1ccc2nc(OC)c(Cc3ccc(C(F)(F)F)cc3)c(Cl)c2c1)(c1ccc(C)nc1C)c1cnnn1C (single isomer, unassigned) [Example 121b, 1-(4-Chloro-2-methoxy-3-(4-(trifluoromethyl)benzyl)quinolin-6-yl)-1-(2,6-dimethylpyridin-3-yl)-N-methyl-1-(1-methyl-1H-1,2,3-triazol-5-yl)methanamine•TFA]	–	–	inhibition at 6 µM (HEK293T cells): 98%
COc1nc2ccc(C(c3ccc(C)nc3C)(c3cnnn3C)N(C)C)cc2c(Cl)c1Cc1ccc(C(F)(F)F)cc1 (single isomer, unassigned) [Example 122b, 1-(4-Chloro-2-methoxy-3-(4-(trifluoromethyl)benzyl)quinolin-6-yl)-1-(2,6-dimethylpyridin-3-yl)-N,N-dimethyl-1-(1-methyl-1H-1,2,3-triazol-5-yl)methanamine•TFA]	–	–	inhibition at 6 µM (HEK293T cells): 98%

Continued, in another order:

RORγt (LBD) Reporter Assay, % inhibition @ 6 µM (HEK293T cells) [%]	Compound	inhibition at 6 µM [%]	other results
71	Cn1cncc1C(O)(c1ccc(C(F)(F)F)nc1)c1ccc2nc(-n3cccn3)c(Cc3ccccc3)c(C#N)c2c1 (single isomer, unassigned) [Example 114c, 3-Benzyl-6-(hydroxy(1-methyl-1H-imidazol-5-yl)(6-(trifluoromethyl)pyridin-3-yl)methyl)-2-(1H-pyrazol-1-yl)quinoline-4-carbonitrile•TFA]	–	–
70	CC(=O)N1CCC(C(O)(c2ccc3nc(C(F)(F)F)c(Cc4ccccc4)c(Cl)c3c2)c2cncn2C)CC1 (single isomer, unassigned) [Example 115c, 1-(4-((3-Benzyl-4-chloro-2-(trifluoromethyl)quinolin-6-yl)(hydroxy)(1-methyl-1H-imidazol-5-yl)methyl)piperidin-1-yl)ethanone•TFA]	–	–
27	COc1nc2ccc(C(N)(c3ccc(C(F)(F)F)nc3)c3cncn3C)cc2c(Cl)c1Cc1ccccc1 (single isomer, unassigned) [Example 120b, (3-Benzyl-4-chloro-2-methoxyquinolin-6-yl)(1-methyl-1H-imidazol-5-yl)(6-(trifluoromethyl)pyridin-3-yl)methanamine•TFA]	–	–
66	COc1nc2ccc(C(N)(c3ccc(C(F)(F)F)nc3)c3cncn3C)cc2c(Cl)c1Cc1ccccc1 (single isomer, unassigned) [Example 120c, (3-Benzyl-4-chloro-2-methoxyquinolin-6-yl)(1-methyl-1H-imidazol-5-yl)(6-(trifluoromethyl)pyridin-3-yl)methanamine•TFA]	–	–
101	CNC(c1ccc2nc(OC)c(Cc3ccc(C(F)(F)F)cc3)c(Cl)c2c1)(c1ccc(C)nc1C)c1cnnn1C (single isomer, unassigned) [Example 121c, 1-(4-Chloro-2-methoxy-3-(4-(trifluoromethyl)benzyl)quinolin-6-yl)-1-(2,6-dimethylpyridin-3-yl)-N-methyl-1-(1-methyl-1H-1,2,3-triazol-5-yl)methanamine•TFA]	–	–
99	COc1nc2ccc(C(c3ccc(C)nc3C)(c3cnnn3C)N(C)C)cc2c(Cl)c1Cc1ccc(C(F)(F)F)cc1 (single isomer, unassigned) [Example 122c, 1-(4-Chloro-2-methoxy-3-(4-(trifluoromethyl)benzyl)quinolin-6-yl)-1-(2,6-dimethylpyridin-3-yl)-N,N-dimethyl-1-(1-methyl-1H-1,2,3-triazol-5-yl)methanamine•TFA]	–	–
